Source: paper PMC6479881 (Molecules, 2019)

Molecular target: T1, Enterococcus faecalis thymidylate synthase (EfTS) (Enterococcus faecalis, UniProt Q834R3)
T1 construct: gene thyA
T1 sequence (Q834R3 1-315): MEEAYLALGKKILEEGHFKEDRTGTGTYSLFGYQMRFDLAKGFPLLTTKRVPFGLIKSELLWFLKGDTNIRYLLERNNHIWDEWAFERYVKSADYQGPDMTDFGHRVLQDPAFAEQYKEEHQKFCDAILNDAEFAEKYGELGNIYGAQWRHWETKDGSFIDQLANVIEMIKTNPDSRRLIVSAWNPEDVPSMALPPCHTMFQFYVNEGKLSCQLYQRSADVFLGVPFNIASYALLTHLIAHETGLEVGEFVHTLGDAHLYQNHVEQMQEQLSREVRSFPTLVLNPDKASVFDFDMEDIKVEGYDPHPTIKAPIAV
Assay: crystal structure at […] Å; spectrophotometric enzyme inhibition assay (IC50 […], Ki calculated)
Format: biochemical

O=c1[nH]c(=O)n([C@H]2C[C@H](O)[C@@H](COP(=O)(O)O)O2)cc1F [FdUMP, 5-fluoro-2′-deoxyuridine-5′-monophosphate]
Ki: 74 nM
